Results published in patent US20250041310A1, “Combination Therapy Comprising A2A/A2B and PD-1/PD-L1 Inhibitors” (Incyte Corporation, priority 2020, published 2025).
Where two headings read alike, the source gives them in different places.

Experiments:
[1] = target: Adenosine A2A Receptor (Homo sapiens (Human), UniProt P29274); test: A2A Tag-lite HTRF Assay; assay type: binding; settings: Tag-lite A2A labeled cells, fluorescent ligand 12.5 nM; read-out: A2A_Ki
Protocol: Test compounds were first serially diluted in DMSO and 100 nl added to the plate wells before the addition of other reaction components. The final concentration of DMSO was 1%. Tag-lite® Adenosine A2A labeled cells (CisBio C1TT1A2A) were diluted 1:5 into Tag-lite buffer (CisBio LABMED) and spun 1200 g for 5 mins.

[2] = target: human adenosine A2B receptor (Homo sapiens (Human), UniProt P29275); test: Adenosine A2B Receptor cyclic AMP GS Assay; assay type: cell-based
human adenosine A2B receptor, sequence (P29275 whole entry): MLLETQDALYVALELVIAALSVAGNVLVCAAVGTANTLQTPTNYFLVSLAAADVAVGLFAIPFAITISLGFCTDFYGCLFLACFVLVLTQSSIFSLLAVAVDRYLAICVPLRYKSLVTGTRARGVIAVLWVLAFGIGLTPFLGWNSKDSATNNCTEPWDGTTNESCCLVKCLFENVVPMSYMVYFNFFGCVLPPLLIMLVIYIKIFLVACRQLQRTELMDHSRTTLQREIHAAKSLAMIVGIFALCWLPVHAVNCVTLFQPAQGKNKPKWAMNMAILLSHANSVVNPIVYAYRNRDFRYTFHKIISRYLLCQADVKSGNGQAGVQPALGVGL
Protocol: Stably transfected HEK-293 cells expressing the human adenosine A2B receptor (Perkin Elmer) were maintained in MEM culture medium with 10% FBS and 100 μg/ml Geneticin (Life Technologies). 18 to 24 hours prior to assay, geneticin was removed from culture. The cisbio cAMP-GS Dynamic kit utilizing the FRET (Fluorescence Resonance Energy Transfer) technology was used to measure cAMP accumulation in the cells. Compounds of the present disclosure at an appropriate concentration were mixed with 10000 cells/well in white 96 well half area plates (Perkin Elmer) for 30 min at RT gently shaking. […] Detection reagents, d2-labeled cAMP (acceptor) and anti-cAMP cryptate (donor) were added to each well for 60 min at RT gently shaking.

[3] = tested on: PBMC from healthy donors stimulated by CD3 antibody; test: In vitro Mixed Lineage Reaction assay (MLR); assay type: cell-based; settings: for effect of combination with atezolizumab: PBMC stimulated with CD3 antibody, FIGS. 2A-2D; for IFNγ production: combined with anti-PD-L1 antibody atezolizumab, 1 μM NECA, CD3 antibody, 4 days
Protocol: On day 0, 10,000 PBMCs from a healthy donor was co-cultured with 10,000 γ-radiated PBMCs from another healthy donor. […] Cells were incubated at 37° C. for 4 days. IFN-γ in the supernatant of each well was measured by a HTRF kit (Cisbio, 62[…]) and the fluorescent signal was detected on a Pherastar FS plate reader (BMG Labtech) on day 4.

[4] = tested on: primary T cells co-cultured with CHO-PD-L1 cells; settings: 2 μM NECA
Protocol: In vitro the CHO-PD-L1 co-culture assay, T cells were treated in the presence of 20 CHO-PD-L1 cells with PD-1 antibody, and using 5′-N-ethylcarboxamide adenosine (NECA), an adenosine-mimicking reagent, to activate adenosine signaling.
Day 0, plate 10,000 CHO PDL1+ cells in Plate 96 Tissue Culture Flat Bottom plate in 100 ul of CHO Media without antibiotics. On day 1, T Cells were thawed and resuspended in T cell media at 1×10^6 cells/ml. Media was removed from the CHO PDL1+ cells plates and 130 ul of T cell media was added. T cell media at 198 ul was added onto the compound plates at 2 ul, or −1:100 dilution and then re-suspended. 20 ul of compounds from the compound plates were added onto the CHO cell plates at a final dilution of compounds at 1:1000. 50 ul of T cells (50,000 cells) were added onto the plates with CHO cells to make a total of 200 ul volume and incubation was carried out at 37° C. for 72 hrs. After 3 days in culture, the supernatant was collected for an hIFNg and hIL2 cytokine assay run using ProCartaplex 2 plex kits (Life Technologies Cat #PPX-02) for hIFNg and hIL2 (Manufacturer's Protocol). The cytokine assay using ProCartaplex kits are run on a Flex Map 3D Luminex multiplexing platform.

[5] = tested on: CT-26 murine colon carcinoma hosted in NSG mice; test: In vivo efficacy study, CT-26 NSG xenograft model; parameters: species or system mouse; settings: 10 mg/kg BID, CT-26 in NSG mice lacking T and NK cells
[6] = tested on: B16 melanoma; test: In vivo efficacy study, B16 syngeneic melanoma model; parameters: species or system mouse; settings: Compound 9 10 mg/kg BID combined with anti-PD-L1
[7] = HEK-293 cells, agonist NECA 12 nM, read-out: A2B_cAMP_EC50

Adenosine A2A Receptor, sequence (P29274 whole entry): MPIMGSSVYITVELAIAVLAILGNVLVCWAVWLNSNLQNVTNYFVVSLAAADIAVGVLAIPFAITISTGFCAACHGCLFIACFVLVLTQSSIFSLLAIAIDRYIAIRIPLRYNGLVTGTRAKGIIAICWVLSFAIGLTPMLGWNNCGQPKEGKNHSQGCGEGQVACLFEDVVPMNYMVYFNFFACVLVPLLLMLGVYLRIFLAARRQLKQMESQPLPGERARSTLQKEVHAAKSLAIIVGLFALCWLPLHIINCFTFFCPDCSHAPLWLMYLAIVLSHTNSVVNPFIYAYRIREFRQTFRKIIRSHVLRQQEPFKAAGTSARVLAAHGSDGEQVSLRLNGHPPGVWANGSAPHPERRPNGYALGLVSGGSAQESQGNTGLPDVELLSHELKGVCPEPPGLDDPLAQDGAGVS

| SMILES | Ki [1] [nM] | EC50 [2, 7] [nM] | further results |
| --- | --- | --- | --- |
| N#Cc1cccc(-c2nc(N)c3nc(C(O)c4c(F)cccc4F)nn3c2-c2ccncn2)c1 (single isomer, unassigned) [Compound 10, 3-(8-Amino-2-((2,6-difluorophenyl)(hydroxy)methyl)-5-(pyrimidin-4-yl)-[1,2,4]triazolo[1,5-a]pyrazin-6-yl)benzonitrile] | < 10 | – | EC50 [2]: < 10 nM |
| Cc1cc(-c2c(-c3cccc(C#N)c3)nc(N)c3nc(C(O)c4c(F)cccc4F)nn23)cc(C)n1 (single isomer, unassigned) [Compound 12, 3-(8-amino-2-((2,6-difluorophenyl)(hydroxy)methyl)-5-(2,6-dimethylpyridin-4-yl)-[1,2,4]triazolo[1,5-a]pyrazin-6-yl)benzonitrile] | < 10 | – | EC50 [2]: 10 to 100 nM |
| N#Cc1cccc(-c2nc(N)n3nc(C(O)c4c(F)cccc4F)nc3c2-c2ccncn2)c1 (stereo not drawn) [Compound 2, 3-(5-Amino-2-((2,6-difluorophenyl)(hydroxy)methyl)-8-(pyrimidin-4-yl)-[1,2,4]triazolo[1,5-c]pyrimidin-7-yl)benzonitrile] | < 10 | < 10 | – |
| N#Cc1cccc(-c2nc(N)n3nc(Cn4nnc(-c5ccccn5)n4)nc3c2-c2ccncn2)c1 [Compound 3A, 3-(5-amino-2-((5-(pyridin-2-yl)-2H-tetrazol-2-yl)methyl)-8-(pyrimidin-4-yl)-[1,2,4]triazolo[1,5-c]pyrimidin-7-yl)benzonitrile] | – | – | effect of combination with atezolizumab [3]: synergistic effect; IFNγ production [3]: increase IFNγ production significantly |
| N#Cc1cccc(-c2nc(N)n3nc(Cn4nnc(-c5ccccn5)n4)nc3c2-c2ccncn2)c1 [Compound 3] | < 10 | < 10 | – |
| Cc1cccnc1COc1nc2c(-c3ccncn3)c(-c3cccc(C#N)c3)nc(N)n2n1 [Compound 4, 3-(5-Amino-2-((3-methylpyridin-2-yl)methoxy)-8-(pyrimidin-4-yl)-[1,2,4]triazolo[1,5-c]pyrimidin-7-yl)benzonitrile] | < 10 | – | – |
| N#Cc1cccc(-c2cc3nc(C(O)c4ccccc4)nn3c(N)n2)c1 (stereo not drawn) [Compound 5, 3-(5-Amino-2-(hydroxy(phenyl)methyl)-[1,2,4]triazolo[1,5-c]pyrimidin-7-yl)benzonitrile] | < 10 | – | – |
| Cn1nc(-c2c(-c3cccc(C#N)c3)nc(N)c3nc(Cc4ccccn4)nn23)ccc1=O [Compound 9, 3-(8-Amino-5-(1-methyl-6-oxo-1,6-dihydropyridazin-3-yl)-2-(pyridin-2-ylmethyl)-[1,2,4]triazolo[1,5-a]pyrazin-6-yl)benzonitrile] | < 10 | – | effect of combination with pembrolizumab ([4]; FIG. 1A): synergistic effect; effect of combination with Antibody X ([4]; FIG. 1B): synergistic effect; effect of combination with Compound Y ([4]; FIG. 1C): synergistic effect; effect of combination with atezolizumab [3]: synergistic effect; IFNγ production [3]: increase IFNγ production significantly; single agent efficacy [5]: no single agent efficacy; tumor growth inhibition [6]: 54% |
| Cc1ncoc1-c1c(-c2cccc(C#N)c2)nc(N)c2nc(C(N)c3c(F)cccc3F)nn12 (stereo not drawn) [Compound 11, 3-(8-amino-2-(amino(2,6-difluorophenyl)methyl)-5-(4-methyloxazol-5-yl)-[1,2,4]triazolo[1,5-a]pyrazin-6-yl)benzonitrile] | < 10 | – | – |
| CCCCCn1c2cc(-c3cnn(Cc4cncc(Cl)c4)c3)[nH]c2c(=O)n2c(C)nnc12 [Compound 17, 7-(1-((5-Chloropyridin-3-yl)methyl)-1H-pyrazol-4-yl)-3-methyl-9-pentyl-6,9-dihydro-5H-pyrrolo[3,2-d][1,2,4]triazolo[4,3-a]pyrimidin-5-one] | < 10 | – | – |
| CCCCCn1c2cc(-c3cnn(Cc4cncc(C)c4)c3)[nH]c2c(=O)n2c(C)nnc12 [Compound 18, 3-Methyl-7-(1-((5-methylpyridin-3-yl)methyl)-1H-pyrazol-4-yl)-9-pentyl-6,9-dihydro-5H-pyrrolo[3,2-d][1,2,4]triazolo[4,3-a]pyrimidin-5-one] | < 10 | – | – |
| N#Cc1cccc(-c2nc(N)n3nc(Cn4nnc(-n5cccn5)n4)nc3c2-c2ccncn2)c1 [Compound 21] | < 10 | < 10 | – |

Second part, led by results:

| Ki [1] [nM] | EC50 [2, 7] [nM] | SMILES | further results |
| --- | --- | --- | --- |
| < 10 | – | N#Cc1cccc(-c2nc(N)n3nc(Cc4ccccn4)nc3c2-c2ccncn2)c1 [Compound 1, 3-(5-Amino-2-(pyridin-2-ylmethyl)-8-(pyrimidin-4-yl)-[1,2,4]triazolo[1,5-c]pyrimidin-7-yl)benzonitrile] | – |
| < 10 | – | N#Cc1cccc(-c2cc3nc(C(O)c4c(F)cccc4F)nn3c(N)n2)c1F (stereo not drawn) [Compound 6, 3-(5-Amino-2-((2,6-difluorophenyl)(hydroxy)methyl)-[1,2,4]triazolo[1,5-c]pyrimidin-7-yl)-2-fluorobenzonitrile] | – |
| < 10 | – | N#Cc1cccc(-c2nc(N)n3nc(C(O)c4c(F)cccc4F)nc3c2C#N)c1F (stereo not drawn) [Compound 7, 5-Amino-7-(3-cyano-2-fluorophenyl)-2-((2,6-difluorophenyl)(hydroxy)methyl)-[1,2,4]triazolo[1,5-c]pyrimidine-8-carbonitrile] | – |
| < 10 | – | CN1CCC(NCc2cccc(F)c2C(O)c2nc3cc(-c4cccc(C#N)c4F)nc(N)n3n2)C1=O (stereo not drawn) [Compound 8, 3-(5-Amino-2-((2-fluoro-6-(((1-methyl-2-oxopyrrolidin-3-yl)amino)methyl)phenyl)(hydroxy)methyl)-[1,2,4]triazolo[1,5-c]pyrimidin-7-yl)-2-fluorobenzonitrile] | – |
| < 10 | < 10 | N#Cc1cccc(-c2nc(N)c3nn(Cc4ccccn4)nc3c2-c2ccncn2)c1 [Compound 13, 3-(4-amino-2-(pyridin-2-ylmethyl)-7-(pyrimidin-4-yl)-2H-[1,2,3]triazolo[4,5-c]pyridin-6-yl)benzonitrile] | – |
| < 10 | < 10 | N#Cc1cccc(-c2nc(N)c3nn(Cc4ncccc4F)nc3c2-c2ccncn2)c1 [Compound 14, 3-(4-amino-2-((3-fluoropyridin-2-yl)methyl)-7-(pyrimidin-4-yl)-2H-[1,2,3]triazolo[4,5-c]pyridin-6-yl)benzonitrile] | – |
| < 10 | < 10 | N#Cc1cccc(-c2nc(N)c3nn(Cc4ncccc4F)nc3c2-c2ccncc2)c1 [Compound 15, 3-(4-amino-2-((3-fluoropyridin-2-yl)methyl)-7-(pyridin-4-yl)-2H-[1,2,3]triazolo[4,5-c]pyridin-6-yl)benzonitrile] | – |
| < 10 | < 10 | Cn1nccc1-c1c(-c2cccc(C#N)c2F)nc(N)c2nn(Cc3ccccn3)nc12 [Compound 16, 3-(4-amino-7-(1-methyl-1H-pyrazol-5-yl)-2-(pyridin-2-ylmethyl)-2H-[1,2,3]triazolo[4,5-c]pyridin-6-yl)-2-fluorobenzonitrile] | – |
| < 10 | – | CCCCCn1c2cc(-c3cnn(Cc4cnc5ccsc5c4)c3)[nH]c2c(=O)n2c(C)nnc12 [Compound 19, 3-Methyl-9-pentyl-7-(1-(thieno[3,2-b]pyridin-6-ylmethyl)-1H-pyrazol-4-yl)-6,9-dihydro-5H-pyrrolo[3,2-d][1,2,4]triazolo[4,3-a]pyrimidin-5-one] | – |
| < 10 | – | CCCCCn1c2cc(-c3cnn(Cc4ccc5c(c4)CCN(C(=O)CN(C)C)C5)c3)[nH]c2c(=O)n2c(C)nnc12 [Compound 20, 7-(1-((2-(2-(Dimethylamino)acetyl)-1,2,3,4-tetrahydroisoquinolin-6-yl)methyl)-1H-pyrazol-4-yl)-3-methyl-9-pentyl-6,9-dihydro-5H-pyrrolo[3,2-d][1,2,4]triazolo[4,3-a]pyrimidin-5-one] | – |
